Reference: PubChem BioAssay AID1918999 (Molecular Pharmacology Branch, DTP, NCI, 2023)

Tested on: 556581-035-R-J1-PDC complex spheroid growth
Experiment: Anticancer human tumor 556581-035-R-J1-PDC patient-derived ovarian carcinoma cell line growth inhibition [AhR]
Settings: for IC50: curve of first compound; for viability, T/C: stronger effect = lower value
Method in brief: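 Spheroids combined tumor cells with HUVEC endothelial cells and human MSCs as stroma. AhR antagonists were paired with standard or investigational drugs, each dosed in half-log steps down from near clinical Cmax, or from 10 microM where Cmax was unknown.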

[1] = second compound 0.1 µM, first compound 0.0316 µM
[2] = second compound 0.1 µM, first compound 0.1 µM
[3] = second compound 0.316 µM, first compound 0.0316 µM
[4] = second compound 0.316 µM, first compound 0.1 µM
[5] = second compound 1 µM, first compound 0.0316 µM
[6] = second compound 1 µM, first compound 0.1 µM
[7] = second compound 3.16 µM, first compound 0.0316 µM
[8] = second compound 3.16 µM, first compound 0.1 µM
[9] = second compound 10 µM, first compound 0.0316 µM
[10] = second compound 10 µM, first compound 0.1 µM
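Throughout, for viability, T/C: compound exposure lasted 7 days; 100% = DMSO vehicle control growth.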

`CC(C)c1c(-c2ccccc2)nc2c(C#N)c[nH]n2c1=O` + CC(CO)NC(=O)c1cc(-c2ccc(Cl)cc2)nn(-c2cnn(C)c2)c1=O showed an IC50 (second compound 0.1 µM) of over 10000 nM, an IC50 (second compound 0.316 µM) of over 10000 nM and an IC50 (second compound 1 µM) of over 10000 nM. It also gave an IC50 (second compound 3.16 µM) of over 10000 nM, an IC50 (second compound 10 µM) of over 10000 nM and a viability, T/C [1] of 109%. For the same compound, the viability, T/C [2] was 97.8%, the viability, T/C (second compound 0.1 µM, first compound 0.316 µM) was 95.2% and the viability, T/C (second compound 0.1 µM, first compound 1 µM) was 102%. It also gave a viability, T/C (second compound 0.1 µM, first compound 3.16 µM) of 90.2%, a viability, T/C (second compound 0.1 µM, first compound 10 µM) of 97.4% and a viability, T/C [3] of 106%. It also gave a viability, T/C [4] of 105%, a viability, T/C (second compound 0.316 µM, first compound 0.316 µM) of 95.9% and a viability, T/C (second compound 0.316 µM, first compound 1 µM) of 96.5%. It also gave a viability, T/C (second compound 0.316 µM, first compound 3.16 µM) of 106%, a viability, T/C (second compound 0.316 µM, first compound 10 µM) of 97.5% and a viability, T/C [5] of 110%. It also gave a viability, T/C [6] of 112%, a viability, T/C (second compound 1 µM, first compound 0.316 µM) of 108% and a viability, T/C (second compound 1 µM, first compound 1 µM) of 107%. The viability, T/C (second compound 1 µM, first compound 3.16 µM) was 113%, the viability, T/C (second compound 1 µM, first compound 10 µM) was 95.8% and the viability, T/C [7] was 106%. It also gave a viability, T/C [8] of 95.5%, a viability, T/C (second compound 3.16 µM, first compound 0.316 µM) of 116% and a viability, T/C (second compound 3.16 µM, first compound 1 µM) of 100%. It also gave a viability, T/C (second compound 3.16 µM, first compound 3.16 µM) of 106%, a viability, T/C (second compound 3.16 µM, first compound 10 µM) of 99.2% and a viability, T/C [9] of 108%. It also gave a viability, T/C [10] of 117%, a viability, T/C (second compound 10 µM, first compound 0.316 µM) of 111% and a viability, T/C (second compound 10 µM, first compound 1 µM) of 97.8%. The viability, T/C (second compound 10 µM, first compound 3.16 µM) was 104% and the viability, T/C (second compound 10 µM, first compound 10 µM) was 97.1%.
`CCc1c2c(nc3ccc(O)cc13)-c1cc3c(c(=O)n1C2)COC(=O)[C@]3(O)CC` + CC(CO)NC(=O)c1cc(-c2ccc(Cl)cc2)nn(-c2cnn(C)c2)c1=O showed an IC50 (second compound 0.1 µM) of 11.7 nM, an IC50 (second compound 0.316 µM) of 16.4 nM and an IC50 (second compound 1 µM) of 15.7 nM. For the same compound, the IC50 (second compound 3.16 µM) was 11.5 nM, the IC50 (second compound 10 µM) was 12.1 nM and the viability, T/C (second compound 0.1 µM, first compound 0.000949 µM) was 77.2%. For the same compound, the viability, T/C (second compound 0.1 µM, first compound 0.003 µM) was 73.5%, the viability, T/C (second compound 0.1 µM, first compound 0.00949 µM) was 49.5% and the viability, T/C (second compound 0.1 µM, first compound 0.03 µM) was 36.7%. The viability, T/C (second compound 0.1 µM, first compound 0.0949 µM) was 19.2%, the viability, T/C (second compound 0.1 µM, first compound 0.3 µM) was 11.6% and the viability, T/C (second compound 0.316 µM, first compound 0.000949 µM) was 81.5%. The viability, T/C (second compound 0.316 µM, first compound 0.003 µM) was 79.6%, the viability, T/C (second compound 0.316 µM, first compound 0.00949 µM) was 60.7% and the viability, T/C (second compound 0.316 µM, first compound 0.03 µM) was 36.9%. The viability, T/C (second compound 0.316 µM, first compound 0.0949 µM) was 20.6%, the viability, T/C (second compound 0.316 µM, first compound 0.3 µM) was 12.1% and the viability, T/C (second compound 1 µM, first compound 0.000949 µM) was 77.3%. For the same compound, the viability, T/C (second compound 1 µM, first compound 0.003 µM) was 74.2%, the viability, T/C (second compound 1 µM, first compound 0.00949 µM) was 59.5% and the viability, T/C (second compound 1 µM, first compound 0.03 µM) was 36.8%. The viability, T/C (second compound 1 µM, first compound 0.0949 µM) was 21.4%, the viability, T/C (second compound 1 µM, first compound 0.3 µM) was 11.3% and the viability, T/C (second compound 3.16 µM, first compound 0.000949 µM) was 73.6%. It also gave a viability, T/C (second compound 3.16 µM, first compound 0.003 µM) of 67%, a viability, T/C (second compound 3.16 µM, first compound 0.00949 µM) of 52.6% and a viability, T/C (second compound 3.16 µM, first compound 0.03 µM) of 34.9%. The viability, T/C (second compound 3.16 µM, first compound 0.0949 µM) was 18%, the viability, T/C (second compound 3.16 µM, first compound 0.3 µM) was 9.46% and the viability, T/C (second compound 10 µM, first compound 0.000949 µM) was 80.2%. It also gave a viability, T/C (second compound 10 µM, first compound 0.003 µM) of 69.9%, a viability, T/C (second compound 10 µM, first compound 0.00949 µM) of 56.9% and a viability, T/C (second compound 10 µM, first compound 0.03 µM) of 30%. It also gave a viability, T/C (second compound 10 µM, first compound 0.0949 µM) of 18% and a viability, T/C (second compound 10 µM, first compound 0.3 µM) of 8.73%.
Compound `Cn1ncnc1C1c2n[nH]c(=O)c3cc(F)cc(c23)NC1c1ccc(F)cc1` (stereo not given) + Cc1ccccc1N=Nc1ccc(NC(=O)c2ccnn2C)c(C)c1 has an IC50 (second compound 0.1 µM) of over 100 nM, an IC50 (second compound 0.316 µM) of over 100 nM and an IC50 (second compound 1 µM) of over 100 nM. For the same compound, the IC50 (second compound 3.16 µM) was over 100 nM, the IC50 (second compound 10 µM) was over 100 nM and the viability, T/C (second compound 0.1 µM, first compound 0.000316 µM) was 102%. It also gave a viability, T/C (second compound 0.1 µM, first compound 0.001 µM) of 112%, a viability, T/C (second compound 0.1 µM, first compound 0.00316 µM) of 103% and a viability, T/C (second compound 0.1 µM, first compound 0.01 µM) of 105%. For the same compound, the viability, T/C [1] was 94.9%, the viability, T/C [2] was 97.4% and the viability, T/C (second compound 0.316 µM, first compound 0.000316 µM) was 112%. It also gave a viability, T/C (second compound 0.316 µM, first compound 0.001 µM) of 114%, a viability, T/C (second compound 0.316 µM, first compound 0.00316 µM) of 113% and a viability, T/C (second compound 0.316 µM, first compound 0.01 µM) of 103%. For the same compound, the viability, T/C [3] was 104%, the viability, T/C [4] was 94.3% and the viability, T/C (second compound 1 µM, first compound 0.000316 µM) was 116%. For the same compound, the viability, T/C (second compound 1 µM, first compound 0.001 µM) was 99.6%, the viability, T/C (second compound 1 µM, first compound 0.00316 µM) was 109% and the viability, T/C (second compound 1 µM, first compound 0.01 µM) was 100%. For the same compound, the viability, T/C [5] was 97.8%, the viability, T/C [6] was 105% and the viability, T/C (second compound 3.16 µM, first compound 0.000316 µM) was 110%. For the same compound, the viability, T/C (second compound 3.16 µM, first compound 0.001 µM) was 101%, the viability, T/C (second compound 3.16 µM, first compound 0.00316 µM) was 94.6% and the viability, T/C (second compound 3.16 µM, first compound 0.01 µM) was 96.5%. The viability, T/C [7] was 104%, the viability, T/C [8] was 111% and the viability, T/C (second compound 10 µM, first compound 0.000316 µM) was 92.2%. It also gave a viability, T/C (second compound 10 µM, first compound 0.001 µM) of 108%, a viability, T/C (second compound 10 µM, first compound 0.00316 µM) of 89.8% and a viability, T/C (second compound 10 µM, first compound 0.01 µM) of 98.8%. The viability, T/C [9] was 93.8% and the viability, T/C [10] was 92.3%.
